pEC50: −log10 of the molar value. Starred links: 1 amine or outer side, 2 acyl side, 3 side chain; linkers in the order of their positions; H or OH if unused. Non-standard residues stand in square brackets, D forms with d. Residues, ends and D or L forms follow the SMILES beside them. Groups on a side chain read outwards from the residue. *: point of attachment. C20 diacid = O=C(O)CCCCCCCCCCCCCCCCCCC(=O)*; αMePhe(2-F) = C[C@](N)(Cc1ccccc1F)C(=O)O; γGlu = O=C(O)[C@H](CCC(=O)[*:2])N[*:1]; αMeF = C[C@](N)(Cc1ccccc1)C(=O)O; αMeL = CC(C)C[C@](C)(N)C(=O)O; AEEA = NCCOCCOCC(=O)O; Ac3c = NC1(C(=O)O)CC1; Aib = CC(C)(N)C(=O)O
Experiments:
[1] = test system: 3T3-L1 adipocytes; settings: for Rel. A (Relative Activity) on 3T3-L1 adipocyte: relative to GIP
Experimental: Mouse 3T3-L1 precursor adipocytes can be induced to differentiate into mature adipocytes. […] After the cells became full and contacted with each other, DMEM differentiation medium containing 20% FBS, 0.5 mM IBMX, 0.4 ug/mL dexamethasone, and 5 ug/mL insulin was used to induce differentiation of 3T3-L1 adipocyte. After 5 days of induction and cultivation, DMEM medium containing […], 4 ug/ml insulin, and 10 uM rosiglitazone was used to continue induction and cultivation for 3 days. Then, DMEM medium containing 10% FBS was used to continue cultivation for 2-3 days to induce mature 3T3-L1 adipocytes.
The cAMP level produced by the compound on 3T3-L1 adipocytes was determined in this experiment. The tested compound solution was diluted step by step according to a concentration gradient of 3 times, to obtain a total of 10 series of concentration solutions. The solutions were added to induced mature 3T3-L1 adipocytes and incubated at room temperature for 60 minutes. 10 μL detection reagent in the kit was added to each well after drug incubation, and incubated at room temperature for another 60 minutes. […] GraphPad Prism 5 plotting software was used to create compound concentration-effect curves and calculation was performed.

[2] = biological target: Human GLP-1R (Homo sapiens, UniProt P43220); assay: cAMP (HTRF) activity in HEK-293 cells stably overexpressing human GLP-1 receptor; format: cell-based; design: expressed in transfected cells; host or cells: HEK-293; settings: for Human GLP-1R Rel. A (Relative Activity): EC50 of human GLP-1 (7-37) / EC50 of compound; for pEC50: stable transfected cell cAMP activity, at least 3 independent tests
Chain of Human GLP-1R (P43220 24-463): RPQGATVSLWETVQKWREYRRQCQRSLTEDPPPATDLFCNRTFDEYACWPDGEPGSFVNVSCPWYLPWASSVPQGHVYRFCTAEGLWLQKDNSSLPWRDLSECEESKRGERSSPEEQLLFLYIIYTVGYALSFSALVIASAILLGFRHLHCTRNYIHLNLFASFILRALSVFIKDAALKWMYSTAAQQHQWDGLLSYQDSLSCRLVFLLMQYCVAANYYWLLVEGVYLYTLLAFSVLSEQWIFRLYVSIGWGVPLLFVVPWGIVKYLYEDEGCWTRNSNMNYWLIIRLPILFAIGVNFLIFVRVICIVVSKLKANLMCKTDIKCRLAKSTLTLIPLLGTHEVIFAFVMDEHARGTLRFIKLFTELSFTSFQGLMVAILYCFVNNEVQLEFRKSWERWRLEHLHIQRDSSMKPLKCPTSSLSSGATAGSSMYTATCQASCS
Experimental: (§1) By measuring the cAMP signal response levels of the aforementioned cells, the agonistic activity of individual compound towards the corresponding receptor was determined. The intracellular cAMP content was measured using reagent kit available from Cisbio Corp. based on HTRF (homogeneous time-resolved fluorescence) technology.
(§2) The cell fluid was transferred to 10 ml of HBSS for resuspension, and centrifuged at 1000 rpm for 5 minutes at room temperature.
(§3) 10 μL cell suspension was added to each well in the 384 well plate. […] Using the ECHO liquid transfer system, 100 nL of the prepared compound solution was added to the corresponding cell suspensions in the 384 well plate, rotated and shaken at 1000 rpm for 1 minute to mix evenly, and then incubated at room temperature for 60 minutes. 10 μL of detection reagent was added to each well after drug incubation was completed, and incubation was performed in the kit at room temperature for 60 minutes. […] GraphPad Prism 5 plotting software was used to create compound concentration response curves and EC50 (nM) values was calculated.

[3] = biological target: T1, Human GCG R (Homo sapiens, UniProt P47871); assay: cAMP (HTRF) activity in HEK-293 cells stably overexpressing human GCG receptor; format: cell-based; settings: EC50 of human GCG / EC50 of compound
T1 construct: expressed in transfected cells; host or cells: HEK-293
T1 sequence (P47871 26-477): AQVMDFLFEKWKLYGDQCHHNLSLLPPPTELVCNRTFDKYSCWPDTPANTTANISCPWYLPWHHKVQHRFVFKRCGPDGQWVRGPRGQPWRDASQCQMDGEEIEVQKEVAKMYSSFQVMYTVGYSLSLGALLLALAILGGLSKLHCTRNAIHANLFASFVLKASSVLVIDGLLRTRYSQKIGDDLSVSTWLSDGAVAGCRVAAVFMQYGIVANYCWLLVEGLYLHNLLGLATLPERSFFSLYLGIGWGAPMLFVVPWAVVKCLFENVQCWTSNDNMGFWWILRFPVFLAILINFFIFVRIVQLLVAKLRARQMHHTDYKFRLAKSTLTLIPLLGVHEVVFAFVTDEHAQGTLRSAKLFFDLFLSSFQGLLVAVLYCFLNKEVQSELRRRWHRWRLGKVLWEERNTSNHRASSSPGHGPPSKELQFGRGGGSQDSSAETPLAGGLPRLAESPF
Experimental: as §1, §2, §3

[4] = test system: RIN-m5F cells; format: cell-based, rat; settings: for Rel. A (Relative Activity) on RIN-m5F: relative to GLP-1(7-37)
Experimental: This experiment measured the cAMP level produced by the compound on RIN-mF cells.
Frozen […] cells were placed in a 37° C. constant temperature water bath for rapid thawing and recovery. The cell solution was transferred to 10 ml of HBSS for resuspension, and centrifuged at 1000 rpm for 5 minutes at room temperature.
(§4) 10 μL cell suspension was added to each well in the 384 well plate. […] Using the ECHO liquid transfer system, 100 nL of the prepared compound solution was added to the corresponding cell suspensions in the 384 well plate, rotated and shaken at 1000 rpm for 1 minute to mix evenly, and then incubated at room temperature for 60 minutes. 10 μL of detection reagent was added to each wells after drug incubation was completed, and incubation was performed for 60 minutes.

[5] = biological target: T2, Human GIP R (Homo sapiens, UniProt P48546); assay: cAMP (HTRF) activity in CHO cells stably overexpressing GIP receptor; format: cell-based; settings: for Human GIP R Rel. A (Relative Activity): EC50 of human GIP / EC50 of compound; for pEC50: stable transfected cell cAMP activity, at least 3 independent tests
T2 construct: expressed in transfected cells; host or cells: CHO
T2 sequence (P48546 22-466): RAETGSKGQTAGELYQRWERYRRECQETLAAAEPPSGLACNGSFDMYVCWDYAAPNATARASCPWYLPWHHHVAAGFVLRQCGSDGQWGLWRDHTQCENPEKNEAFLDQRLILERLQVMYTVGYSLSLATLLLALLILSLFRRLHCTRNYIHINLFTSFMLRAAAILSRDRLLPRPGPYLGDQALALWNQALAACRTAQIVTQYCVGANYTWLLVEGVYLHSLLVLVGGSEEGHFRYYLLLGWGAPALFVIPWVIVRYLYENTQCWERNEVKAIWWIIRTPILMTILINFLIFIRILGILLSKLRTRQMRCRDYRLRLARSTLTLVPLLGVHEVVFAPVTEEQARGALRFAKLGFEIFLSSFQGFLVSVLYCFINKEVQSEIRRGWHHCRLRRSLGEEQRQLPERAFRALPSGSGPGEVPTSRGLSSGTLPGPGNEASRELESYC
Experimental: as §1, §2, §3

[6] = test system: human primary liver cells; format: cell-based; settings: for Rel. A (Relative Activity) on human primary liver cells: relative to GCG
Experimental: The cAMP levels produced by compounds on human primary liver cells were determined in this experiment. Human primary liver cells were purchased from Lonza (cell product number HUCPG).
Frozen human primary liver cells were placed in a 37° C. constant temperature water bath for rapid thawing and recovery. The cell solution was transferred to 10 ml of HBSS for resuspension, and centrifuged at 1000 rpm for 5 minutes at room temperature.
as §4, with “well” for “wells”

| Human GLP-1R Rel. A (Relative Activity) [2] [%] | pEC50 [2] | Human GCG R Rel. A (Relative Activity) [3] [%] | pEC50 [4] | Human GIP R Rel. A (Relative Activity) [5] [%] | pEC50 [5] | pEC50 [6] | Structure (SMILES) | pEC50 [1] | Rel. A (Relative Activity) on 3T3-L1 adipocyte [1] [%] | Rel. A (Relative Activity) on RIN-m5F [4] [%] | Rel. A (Relative Activity) on human primary liver cells [6] [%] |
| --- | --- | --- | --- | --- | --- | --- | --- | --- | --- | --- | --- |
| 220.00 | 10.70 | 32.95 | 9.06 | 1206.67 | 10.82 | 8.11 | CC[C@H](C)[C@H](NC(=O)[C@H](Cc1ccccc1)NC(=O)[C@H](C)NC(=O)C(C)(C)NC(=O)[C@H](CCC(N)=O)NC(=O)[C@H](C)NC(=O)[C@H](CCCCNC(=O)COCCOCCNC(=O)COCCOCCNC(=O)CC[C@H](NC(=O)CCCCCCCCCCCCCCCCCCC(=O)O)C(=O)O)NC(=O)[C@H](CCCCN)NC(=O)[C@H](CC(=O)O)NC(=O)[C@H](CC(C)C)NC(=O)[C@](C)(CC(C)C)NC(=O)[C@@H](NC(=O)[C@H](CO)NC(=O)[C@H](Cc1ccc(O)cc1)NC(=O)[C@H](CC(=O)O)NC(=O)[C@H](CO)NC(=O)[C@@H](NC(=O)[C@](C)(Cc1ccccc1)NC(=O)[C@@H](NC(=O)CNC(=O)[C@H](CCC(N)=O)NC(=O)C(C)(C)NC(=O)[C@@H](N)Cc1ccc(O)cc1)[C@@H](C)O)[C@@H](C)O)[C@@H](C)CC)C(=O)N[C@@H](CCC(=O)O)C(=O)N[C@@H](Cc1ccccc1)C(=O)N[C@@H](CC(C)C)C(=O)N[C@@H](CC(C)C)C(=O)N[C@@H](CCC(=O)O)C(=O)N[C@H](C(=O)NC(C)(C)C(=O)N1CCC[C@H]1C(=O)N[C@@H](CO)C(=O)N[C@@H](CO)C(=O)NCC(=O)N[C@@H](C)C(=O)N1CCC[C@H]1C(=O)N1CCC[C@H]1C(=O)NC1(C(=O)N[C@@H](CO)C(N)=O)CC1)[C@@H](C)O [Compound 30] (H-Y[Aib]QGT[αMeF]TSDYSI[αMeL]LDKK([AEEA-AEEA-γGlu-C20 diacid])AQ[Aib]AFIEFLLET[Aib]PSSGAPP[Ac3c]S-NH2; N-terminus assumed) | 8.15 | 53.67 | 117.54 | 49.73 |
| 231.58 |  | 36.77 | 9.14 | 2262.50 | 11.10 | 8.38 | CC[C@H](C)[C@H](NC(=O)[C@H](Cc1ccccc1)NC(=O)[C@H](C)NC(=O)C(C)(C)NC(=O)[C@H](CCC(N)=O)NC(=O)[C@H](C)NC(=O)[C@H](CCCCNC(=O)COCCOCCNC(=O)COCCOCCNC(=O)CC[C@H](NC(=O)CCCCCCCCCCCCCCCCCCC(=O)O)C(=O)O)NC(=O)[C@H](CCCCN)NC(=O)[C@H](CC(=O)O)NC(=O)[C@H](CC(C)C)NC(=O)[C@](C)(CC(C)C)NC(=O)[C@@H](NC(=O)[C@H](CO)NC(=O)[C@H](Cc1ccc(O)cc1)NC(=O)[C@H](CC(=O)O)NC(=O)[C@H](CO)NC(=O)[C@@H](NC(=O)[C@](C)(Cc1ccccc1)NC(=O)[C@@H](NC(=O)CNC(=O)[C@H](CCC(N)=O)NC(=O)C(C)(C)NC(=O)[C@@H](N)Cc1ccc(O)cc1)[C@@H](C)O)[C@@H](C)O)[C@@H](C)CC)C(=O)N[C@@H](CCC(=O)O)C(=O)N[C@@H](Cc1ccccc1)C(=O)N[C@@H](CC(C)C)C(=O)N[C@@H](CC(C)C)C(=O)N[C@@H](CCC(=O)O)C(=O)N[C@@H](CO)C(=O)N[C@@H](Cc1c[nH]cn1)C(=O)N1CCC[C@H]1C(=O)N[C@@H](CO)C(=O)N[C@@H](CO)C(=O)NC(C)(C)C(=O)N[C@@H](Cc1c[nH]cn1)C(=O)N1CCC[C@H]1C(=O)N1CCC[C@H]1C(=O)NC1(C(=O)N[C@@H](CO)C(N)=O)CC1 [Compound 33] (H-Y[Aib]QGT[αMeF]TSDYSI[αMeL]LDKK([AEEA-AEEA-γGlu-C20 diacid])AQ[Aib]AFIEFLLESHPSS[Aib]HPP[Ac3c]S-NH2; N-terminus assumed) | 8.48 | 115.21 | 143.93 | 92.93 |
| 191.30 | 10.64 | 150.00 | 9.06 | 3620.00 | 11.30 | 9.27 | CC[C@H](C)[C@H](NC(=O)[C@H](Cc1ccccc1)NC(=O)[C@H](C)NC(=O)C(C)(C)NC(=O)[C@H](CCC(N)=O)NC(=O)[C@H](C)NC(=O)[C@H](CCCCNC(=O)COCCOCCNC(=O)COCCOCCNC(=O)CC[C@H](NC(=O)CCCCCCCCCCCCCCCCCCC(=O)O)C(=O)O)NC(=O)[C@H](CCCCN)NC(=O)[C@H](CC(=O)O)NC(=O)[C@H](CC(C)C)NC(=O)[C@](C)(CC(C)C)NC(=O)[C@@H](NC(=O)[C@H](CO)NC(=O)[C@H](Cc1ccc(O)cc1)NC(=O)[C@H](CC(=O)O)NC(=O)[C@H](CO)NC(=O)[C@@H](NC(=O)[C@](C)(Cc1ccccc1F)NC(=O)[C@@H](NC(=O)CNC(=O)[C@H](CCC(N)=O)NC(=O)C(C)(C)NC(=O)[C@@H](N)Cc1ccc(O)cc1)[C@@H](C)O)[C@@H](C)O)[C@@H](C)CC)C(=O)N[C@@H](CCC(=O)O)C(=O)N[C@@H](Cc1ccc(O)cc1)C(=O)N[C@@H](CC(C)C)C(=O)N[C@@H](CC(C)C)C(=O)N[C@@H](CCC(=O)O)C(=O)N[C@H](C(=O)NCC(=O)N1CCC[C@H]1C(=O)N[C@@H](CO)C(=O)N[C@@H](CO)C(=O)NCC(=O)N[C@@H](CCC(N)=O)C(=O)N1CCC[C@H]1C(=O)N1CCC[C@H]1C(=O)NC1(C(=O)N[C@@H](CO)C(N)=O)CC1)[C@@H](C)O [Compound 34] (H-Y[Aib]QGT[αMePhe(2-F)]TSDYSI[αMeL]LDKK([AEEA-AEEA-γGlu-C20 diacid])AQ[Aib]AFIEYLLETGPSSGQPP[Ac3c]S-NH2; N-terminus assumed) | 8.64 | 165.52 | 117.41 | 724.58 |
